Results as given in patent US4801613A, “Bradykinin antagonist peptides” (Nova Technology Limited Partnership, priority 1987, dated 1989).
Read-outs that look alike come from different tables or passages of the source. Non-standard residues stand in square brackets, D forms with d. Residues, ends and D or L forms follow the SMILES beside them. No end group written: not given here. Hyp = O=C(O)[C@@H]1C[C@@H](O)CN1; 2Thi = N[C@@H](Cc1cccs1)C(=O)O; d2Thi = N[C@H](Cc1cccs1)C(=O)O

Columns and labels:
Format in all cases: cell-based
isolated rat uterus = tested on: isolated rat uterus
Method: (§1) The bradykinin antagonists were assayed on isolated rat uterus in natural or induced estrus and on guinea pig ileum, according to the commonly accepted assay methods for bradykinin and related kinins as described by Trautschold (Handbook of Expt. Pharmacol. Vol. 25, Springer Verlag, pp 53-55, 1970) for inhibition of the myotropic activity of bradykinin. The inhibition potencies, as determined according to the commonly accepted manner described by Schild for antagonists of biologically active compounds (Br. J. Pharmacol. 2:189, 1947), are determined on isolated rat uterus (RUT) and isolated guinea pig ileum (GPI). In the assays, a dose-response curve is determined for the reference substance bradykinin. The dose of bradykinin which produced a half maximal contraction of tissue is the ED50 dose. An amount of bradykinin equivalent to twice the ED50 dose is administered to the tissue 30 seconds after the start of incubation of the tissue with a dose of antagonist. Doses of antagonist are increased in this protocol until pre-incubation with a dose of antagonist reduces the contraction in response to the double ED50 dose of bradykinin to response of a single ED50 dose of bradykinin. The pA2 value represents the negative logarithm of the molar concentration of antagonist necessary to reduce the response of a double ED50 dose of bradykinin to that of an ED50 dose. One unit of pA2 value represents an order of magnitude change in potency. For comparison, the negative log of the dose of BK, the dose which causes half maximal contraction of the tissues, is commonly known as the pD2 value. The pD2 value for bradykinin is 7.9 on the rat uterus and 7.4 on the guinea pig ileum.

[1] = tested on: isolated guinea pig ileum
Method: as §1
(§2) In each case, as shown, the BK-related antagonists inhibited contractions produced by BK-related agonists, but had no effect on the non-kinin myotropic peptide substances. The inhibition potencies are listed as pA2 values as described above.

guinea pig ileum = tested on: guinea pig ileum
Method: as §1, §2

[2] = isolated rat uterus, vs double ED50 dose of bradykinin, Schild
[3] = isolated guinea pig ileum, vs double ED50 dose of bradykinin, Schild

N=C(N)NCCC[C@@H](N)C(=O)N[C@@H](CCCNC(=N)N)C(=O)N1CCC[C@H]1C(=O)N1CCC[C@@H]1C(=O)NCC(=O)N[C@@H](Cc1cccs1)C(=O)N[C@@H](CO)C(=O)N[C@H](Cc1ccccc1)C(=O)N[C@@H](Cc1cccs1)C(=O)N[C@@H](CCCNC(=N)N)C(=O)O [Example 16, DArg-Arg-Pro-DPro-Gly-Thi-Ser-DPhe-Thi-Arg] (H-[dR]RP[dP]G[2Thi]S[dF][2Thi]R-OH)
pA2/RUT (isolated rat uterus): 5.2

KKR[Hyp]G[2Thi]S[dF][2Thi]R [Example 19]
pA2/RUT (isolated rat uterus; [2]): 5.8

N=C(N)NCCC[C@H](NC(=O)[C@H](Cc1cccs1)NC(=O)[C@@H](Cc1ccccc1)NC(=O)[C@H](CO)NC(=O)[C@H](Cc1cccs1)NC(=O)CNC(=O)[C@@H]1CCCN1C(=O)[C@@H]1C[C@@H](O)CN1C(=O)[C@@H](N)CCCNC(=N)N)C(=O)O [Example 18, Arg-Hyp-Pro-Gly-Thi-Ser-DPhe-Thi-Arg] (H-R[Hyp]PG[2Thi]S[dF][2Thi]R-OH)
pA2/RUT (isolated rat uterus): 5.6

N=C(N)NCCC[C@H](NC(=O)[C@H](Cc1cccs1)NC(=O)[C@@H](Cc1cccs1)NC(=O)[C@H](CO)NC(=O)[C@H](Cc1cccs1)NC(=O)CNC(=O)[C@@H]1CCCN1C(=O)[C@@H]1CCCN1C(=O)[C@@H](N)CCCNC(=N)N)C(=O)O [Example 7, Arg-Pro-Pro-Gly-Thi-Ser-DThi-Thi-Arg] (H-RPPG[2Thi]S[d2Thi][2Thi]R-OH)
pA2/RUT (isolated rat uterus): 4.2 | pA2/GPI [1]: 5.8

N=C(N)NCCC[C@H](NC(=O)[C@H](Cc1ccccc1)NC(=O)[C@@H](Cc1cccs1)NC(=O)[C@H](CO)NC(=O)[C@H](Cc1ccccc1)NC(=O)CNC(=O)[C@@H]1CCCN1C(=O)[C@@H]1CCCN1C(=O)[C@@H](N)CCCNC(=N)N)C(=O)O [Example 2, Arg-Pro-Pro-Gly-Phe-Ser-DThi-Phe-Arg] (H-RPPGFS[d2Thi]FR-OH)
pA2/GPI [1]: 4.6

N=C(N)NCCC[C@H](NC(=O)[C@H](Cc1ccccc1)NC(=O)[C@@H](Cc1ccccc1)NC(=O)[C@H](CO)NC(=O)[C@H](Cc1ccccc1)NC(=O)CNC(=O)[C@@H]1CCCN1C(=O)[C@@H]1CCCN1C(=O)[C@@H](N)CCCNC(=N)N)C(=O)O [Example 1, Arg-Pro-Pro-Gly-Phe-Ser-DPhe-Phe-Arg] (H-RPPGFS[dF]FR-OH)
RUT AG = agonist potency relative to BK = 100 (isolated rat uterus): 1% | GUINEA PIG ILEUM KAL (pA2) (guinea pig ileum): 5.6 | GUINEA PIG ILEUM MK--BK (pA2) (guinea pig ileum): 6.0 | GUINEA PIG ILEUM BK (pA2) [1]: 5.0

N=C(N)NCCC[C@H](NC(=O)[C@H](Cc1ccccc1)NC(=O)[C@@H](Cc1ccccc1)NC(=O)[C@@H](Cc1ccccc1)NC(=O)[C@H](Cc1ccccc1)NC(=O)CNC(=O)[C@@H]1CCCN1C(=O)[C@@H]1CCCN1C(=O)[C@@H](N)CCCNC(=N)N)C(=O)O [Example 4, Arg-Pro-Pro-Gly-Phe-DPhe-DPhe-Phe-Arg] (H-RPPGF[dF][dF]FR-OH)
pA2/GPI [1]: 5.2

Arg-Pro-Pro-Gly-Phe-Ser-DPal-Phe-Arg [Example 3]
pA2/RUT (isolated rat uterus; [2]): 5.0 | pA2/GPI [1, 3]: 4.8

Arg-Pro-Pro-Gly-Thi-Ser-DPal-Thi-Arg [Example 8]
pA2/RUT (isolated rat uterus; [2]): 4.2

N=C(N)NCCC[C@@H](N)C(=O)N[C@@H](CCCNC(=N)N)C(=O)N1CCC[C@H]1C(=O)N1CCC[C@@H]1C(=O)NCC(=O)N[C@@H](Cc1ccccc1)C(=O)N[C@@H](CO)C(=O)N[C@H](Cc1ccccc1)C(=O)N[C@@H](Cc1ccccc1)C(=O)N[C@@H](CCCNC(=N)N)C(=O)O [Example 11, DArg-Arg-Pro-DPro-Gly-Phe-Ser-DPhe-Phe-Arg]
RUT pA2 (isolated rat uterus): 4.6 | pA2/RUT (isolated rat uterus): 4.0

Arg-Hyp-Hyp-Gly-Thi-DPhe-CDF-Thi-Arg [Example 23]
pA2/RUT (isolated rat uterus; [2]): 6.5

N=C(N)NCCC[C@@H](N)C(=O)N[C@@H](CCCNC(=N)N)C(=O)N1C[C@H](O)C[C@H]1C(=O)N1CCC[C@H]1C(=O)NCC(=O)N[C@@H](Cc1cccs1)C(=O)N[C@@H](CO)C(=O)N[C@H](Cc1ccccc1)C(=O)N[C@@H](Cc1cccs1)C(=O)N[C@@H](CCCNC(=N)N)C(=O)O [Example 64, DArg-Arg-Hyp-Pro-Gly-Thi-Ser-DPhe-Thi-Arg] (H-[dR]R[Hyp]PG[2Thi]S[dF][2Thi]R-OH)
pA2/RUT (isolated rat uterus): 5.7

N=C(N)NCCC[C@@H](N)C(=O)N[C@@H](CCCNC(=N)N)C(=O)N1C[C@H](O)C[C@H]1C(=O)N1C[C@H](O)C[C@H]1C(=O)NCC(=O)N[C@@H](Cc1cccs1)C(=O)N[C@@H](CO)C(=O)N[C@H](Cc1ccccc1)C(=O)N[C@@H](Cc1cccs1)C(=O)N[C@@H](CCCNC(=N)N)C(=O)O [Example 65, DArg-Arg-Hyp-Hyp-Gly-Thi-Ser-DPhe-Thi-Arg] (H-[dR]R[Hyp][Hyp]G[2Thi]S[dF][2Thi]R-OH)
pA2/RUT (isolated rat uterus): 7.1

Arg-Pro-Pro-Gly-Phe-DPhe-CDF-Phe-Arg [Example 5]
pA2/RUT (isolated rat uterus; [2]): 4.9 | pA2/GPI [1, 3]: 5.8

N=C(N)NCCC[C@H](NC(=O)[C@H](Cc1cccs1)NC(=O)[C@@H](Cc1ccccc1)NC(=O)[C@H](CO)NC(=O)[C@H](Cc1cccs1)NC(=O)CNC(=O)[C@@H]1CCCN1C(=O)[C@@H]1CCCN1C(=O)[C@H](CCCNC(=N)N)NC(=O)[C@H](CCCCN)NC(=O)[C@@H](N)CCCCN)C(=O)O [Example 14, Lys-Lys-Arg-Pro-Pro-Gly-Thi-Ser-DPhe-Thi-Arg] (H-KKRPPG[2Thi]S[dF][2Thi]R-OH)
pA2/RUT (isolated rat uterus): 6.0 | pA2/GPI [1]: 5.3

N=C(N)NCCC[C@@H](N)C(=O)N[C@@H](CCCNC(=N)N)C(=O)N1CCC[C@H]1C(=O)N1CCC[C@H]1C(=O)NCC(=O)N[C@@H](Cc1cccs1)C(=O)N[C@@H](CO)C(=O)N[C@H](Cc1ccccc1)C(=O)N[C@@H](Cc1cccs1)C(=O)N[C@@H](CCCNC(=N)N)C(=O)O [Example 15, DArg-Arg-Pro-Pro-Gly-Thi-Ser-DPhe-Thi-Arg] (H-[dR]RPPG[2Thi]S[dF][2Thi]R-OH)
RUT pA2 (isolated rat uterus): 5.2 | pA2/RUT (isolated rat uterus): 5.5 | GUINEA PIG ILEUM KAL (pA2) (guinea pig ileum): 6.7 | GUINEA PIG ILEUM MK--BK (pA2) (guinea pig ileum): 6.4 | GUINEA PIG ILEUM BK (pA2) [1]: 6.1

N=C(N)NCCC[C@H](NC(=O)[C@H](Cc1cccs1)NC(=O)[C@@H](Cc1ccccc1)NC(=O)[C@H](CO)NC(=O)[C@H](Cc1cccs1)NC(=O)CNC(=O)[C@@H]1C[C@@H](O)CN1C(=O)[C@@H]1C[C@@H](O)CN1C(=O)[C@@H](N)CCCNC(=N)N)C(=O)O [Example 22, Arg-Hyp-Hyp-Gly-Thi-Ser-DPhe-Thi-Arg] (H-R[Hyp][Hyp]G[2Thi]S[dF][2Thi]R-OH)
pA2/RUT (isolated rat uterus): 6.7

N=C(N)NCCC[C@H](NC(=O)[C@H](Cc1ccccc1)NC(=O)[C@@H](Cc1ccccc1)NC(=O)[C@H](CO)NC(=O)[C@H](Cc1ccccc1)NC(=O)CNC(=O)[C@@H]1CCCN1C(=O)[C@@H]1CCCN1C(=O)[C@H](CCCNC(=N)N)NC(=O)[C@H](CCCCN)NC(=O)[C@@H](N)CCCCN)C(=O)O [Example 13, Lys-Lys-Arg-Pro-Pro-Gly-Phe-Ser-DPhe-Phe-Arg] (H-KKRPPGFS[dF]FR-OH)
pA2/GPI [1]: 5.1

N=C(N)NCCC[C@@H](N)C(=O)N[C@@H](CCCNC(=N)N)C(=O)N1CCC[C@H]1C(=O)N1C[C@H](O)C[C@H]1C(=O)NCC(=O)N[C@@H](Cc1cccs1)C(=O)N[C@@H](CO)C(=O)N[C@H](Cc1ccccc1)C(=O)N[C@@H](Cc1cccs1)C(=O)N[C@@H](CCCNC(=N)N)C(=O)O [Example 21, DArg-Arg-Pro-Hyp-Gly-Thi-Ser-DPhe-Thi-Arg] (H-[dR]RP[Hyp]G[2Thi]S[dF][2Thi]R-OH)
pA2/RUT (isolated rat uterus): 7.2

N=C(N)NCCC[C@H](NC(=O)[C@H](Cc1cccs1)NC(=O)[C@@H](Cc1ccccc1)NC(=O)[C@H](CO)NC(=O)[C@H](Cc1cccs1)NC(=O)CNC(=O)[C@@H]1C[C@@H](O)CN1C(=O)[C@@H]1CCCN1C(=O)[C@H](CCCNC(=N)N)NC(=O)[C@H](CCCCN)NC(=O)[C@@H](N)CCCCN)C(=O)O [Example 77, Lys-Lys-Arg-Pro-Hyp-Gly-Thi-Ser-DPhe-Thi-Arg] (H-KKRP[Hyp]G[2Thi]S[dF][2Thi]R-OH)
pA2/RUT (isolated rat uterus): 6.7

N=C(N)NCCC[C@H](NC(=O)[C@H](Cc1ccccc1)NC(=O)[C@@H](Cc1ccccc1)NC(=O)[C@H](CO)NC(=O)[C@H](Cc1ccccc1)NC(=O)CNC(=O)[C@@H]1CCCN1C(=O)[C@@H]1C[C@@H](O)CN1C(=O)[C@H](CCCNC(=N)N)NC(=O)[C@H](CCCCN)NC(=O)[C@@H](N)CCCCN)C(=O)O [Example 72, Lys-Lys-Arg-Hyp-Pro-Gly-Phe-Ser-DPhe-Phe-Arg] (H-KKR[Hyp]PGFS[dF]FR-OH)
pA2/RUT (isolated rat uterus): 5.6

N=C(N)NCCC[C@H](NC(=O)[C@H](Cc1cccs1)NC(=O)[C@@H](Cc1ccccc1)NC(=O)[C@H](CO)NC(=O)[C@H](Cc1cccs1)NC(=O)CNC(=O)[C@@H]1C[C@@H](O)CN1C(=O)[C@@H]1CCCN1C(=O)[C@@H](N)CCCNC(=N)N)C(=O)O [Example 20, Arg-Pro-Hyp-Gly-Thi-Ser-DPhe-Thi-Arg] (H-RP[Hyp]G[2Thi]S[dF][2Thi]R-OH)
pA2/RUT (isolated rat uterus): 7.0 | pA2/GPI [1]: 4.7
